Consider 24 molecules from patent publication US10077261B2, “Imidazolin-5-one derivative useful as FASN inhibitors for the treatment of cancer” (Janssen Pharmaceutica NV, priority 2012, dated 2018).

In this assay the target is T1, hFASN enzyme (full length) (Homo sapiens, UniProt P49327).
T1 construct: 10 μL hFASN enzyme (full length, 300 ng, purified in house); made in house
In words: Fatty Acid Synthase (FASN) inhibition scintillation proximity assay. The assay is classed as biochemical. The conditions noted are these: for inhibition at 10 µM: read-out: Human FASN % inhibition @ 10 μM, 10 μM test compound; for IC50: read-out: Human FASN pIC50 (converted). Put shortly: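 Read-out relies on hydrophobic ³H-palmitate product, formed from ³H-acetyl-CoA and malonyl-CoA, binding streptavidin imaging beads, measured at 610±20 nm after at least 24 h. Full-length enzyme (300 ng) in phosphate buffer pH 7.5 with DTT; eight compound concentrations, 0.01–30 μM.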

T1 sequence (P49327 whole entry): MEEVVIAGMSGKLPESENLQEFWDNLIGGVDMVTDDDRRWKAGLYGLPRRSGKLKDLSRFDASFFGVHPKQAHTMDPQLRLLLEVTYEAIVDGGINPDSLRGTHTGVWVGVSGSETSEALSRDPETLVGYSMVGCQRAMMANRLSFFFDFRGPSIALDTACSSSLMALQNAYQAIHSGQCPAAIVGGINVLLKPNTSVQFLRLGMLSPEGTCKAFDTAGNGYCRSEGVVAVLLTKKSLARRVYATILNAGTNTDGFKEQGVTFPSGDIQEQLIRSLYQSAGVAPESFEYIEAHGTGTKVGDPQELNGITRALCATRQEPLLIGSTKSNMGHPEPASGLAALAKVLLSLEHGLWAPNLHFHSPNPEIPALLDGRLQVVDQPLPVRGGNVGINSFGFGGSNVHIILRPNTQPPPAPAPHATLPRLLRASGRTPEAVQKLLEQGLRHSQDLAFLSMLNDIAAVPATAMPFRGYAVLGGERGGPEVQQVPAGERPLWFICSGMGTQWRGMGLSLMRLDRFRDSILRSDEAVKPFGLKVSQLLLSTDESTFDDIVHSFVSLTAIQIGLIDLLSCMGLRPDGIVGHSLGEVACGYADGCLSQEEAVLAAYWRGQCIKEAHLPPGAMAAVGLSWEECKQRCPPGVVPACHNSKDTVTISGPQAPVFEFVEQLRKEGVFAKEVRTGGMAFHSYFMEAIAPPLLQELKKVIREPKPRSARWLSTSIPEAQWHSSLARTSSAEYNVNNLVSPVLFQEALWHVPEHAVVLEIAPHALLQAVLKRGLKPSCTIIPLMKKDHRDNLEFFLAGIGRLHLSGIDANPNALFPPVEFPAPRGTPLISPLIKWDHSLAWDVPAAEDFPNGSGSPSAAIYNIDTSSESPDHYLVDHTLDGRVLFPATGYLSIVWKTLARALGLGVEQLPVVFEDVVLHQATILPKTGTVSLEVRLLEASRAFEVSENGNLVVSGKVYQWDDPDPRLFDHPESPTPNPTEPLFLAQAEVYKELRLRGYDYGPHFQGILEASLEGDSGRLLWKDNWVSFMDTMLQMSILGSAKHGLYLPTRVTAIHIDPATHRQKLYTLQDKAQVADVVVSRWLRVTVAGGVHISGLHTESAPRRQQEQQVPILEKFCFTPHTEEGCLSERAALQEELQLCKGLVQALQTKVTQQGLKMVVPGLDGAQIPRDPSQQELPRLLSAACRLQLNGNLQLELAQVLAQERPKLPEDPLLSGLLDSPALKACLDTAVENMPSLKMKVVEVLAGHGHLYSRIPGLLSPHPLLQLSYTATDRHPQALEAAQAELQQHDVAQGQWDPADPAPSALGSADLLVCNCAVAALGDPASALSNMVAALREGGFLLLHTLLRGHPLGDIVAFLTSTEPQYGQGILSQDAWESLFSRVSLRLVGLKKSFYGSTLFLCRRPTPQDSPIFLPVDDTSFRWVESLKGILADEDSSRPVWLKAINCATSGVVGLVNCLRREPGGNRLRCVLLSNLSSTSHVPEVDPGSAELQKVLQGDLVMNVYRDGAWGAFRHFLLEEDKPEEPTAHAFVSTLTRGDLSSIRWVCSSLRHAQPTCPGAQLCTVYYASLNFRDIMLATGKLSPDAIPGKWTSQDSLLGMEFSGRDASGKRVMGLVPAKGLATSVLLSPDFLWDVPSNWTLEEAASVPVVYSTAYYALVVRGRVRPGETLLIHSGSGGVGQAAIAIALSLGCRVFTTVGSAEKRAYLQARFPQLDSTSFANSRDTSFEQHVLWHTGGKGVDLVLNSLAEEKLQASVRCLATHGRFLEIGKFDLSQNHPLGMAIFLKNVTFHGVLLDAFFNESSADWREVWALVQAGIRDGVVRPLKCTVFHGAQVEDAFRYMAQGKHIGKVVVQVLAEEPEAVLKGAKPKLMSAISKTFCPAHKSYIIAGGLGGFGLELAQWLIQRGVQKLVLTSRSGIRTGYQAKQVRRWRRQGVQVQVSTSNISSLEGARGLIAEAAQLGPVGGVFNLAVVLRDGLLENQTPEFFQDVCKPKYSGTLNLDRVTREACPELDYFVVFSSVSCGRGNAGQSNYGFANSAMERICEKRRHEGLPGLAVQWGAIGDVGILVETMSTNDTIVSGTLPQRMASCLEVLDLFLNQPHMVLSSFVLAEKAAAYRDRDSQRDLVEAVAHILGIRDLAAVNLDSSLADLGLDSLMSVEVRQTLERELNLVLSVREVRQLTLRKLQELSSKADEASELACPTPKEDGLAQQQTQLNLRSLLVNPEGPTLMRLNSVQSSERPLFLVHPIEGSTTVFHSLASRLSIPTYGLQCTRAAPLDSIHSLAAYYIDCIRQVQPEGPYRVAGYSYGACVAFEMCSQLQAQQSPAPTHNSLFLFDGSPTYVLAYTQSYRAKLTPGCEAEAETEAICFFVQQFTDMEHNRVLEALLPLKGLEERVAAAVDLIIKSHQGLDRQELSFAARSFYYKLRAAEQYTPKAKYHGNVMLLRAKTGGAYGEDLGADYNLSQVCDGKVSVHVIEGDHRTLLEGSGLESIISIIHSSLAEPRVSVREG

Regarding `O=C(N1CC(CN2C(=O)C3(CCOCC3)N=C2c2ccc(-c3ccc4cccnc4c3)cc2)C1)C(F)(F)F` [compound 910, 2-(4-(quinolin-7-yl)phenyl)-3-((1-(2,2,2-trifluoroacetyl)azetidin-3-yl)methyl)-8-oxa-1,3-diazaspiro[4.5]dec-1-en-4-one], the inhibition at 10 µM was determined as 12% and the IC50 is over 10 µM.

Regarding `Cn1cc(-c2ccc(-c3ccc(C4=NC5(CCOCC5)C(=O)N4CC4CN(C(=O)c5nccs5)C4)cc3)cc2)cn1` [compound 911, 2-(4′-(1-methyl-1H-pyrazol-4-yl)-[1,1′-biphenyl]-4-yl)-3-((1-(thiazole-2-carbonyl)azetidin-3-yl)methyl)-8-oxa-1,3-diazaspiro[4.5]dec-1-en-4-one], the inhibition at 10 µM turned out to be 7% and the IC50 was over 10 µM.

On to `CS(=O)(=O)N1CC(CN2C(=O)C3(CCOCC3)N=C2c2ccc(-c3ccc4cccnc4c3)cc2)C1` [compound 912, 3-((1-(methylsulfonyl)azetidin-3-yl)methyl)-2-(4-(quinolin-7-yl)phenyl)-8-oxa-1,3-diazaspiro[4.5]dec-1-en-4-one], for which the inhibition at 10 µM came out at 1% and the IC50 is over 10 µM.

On to `CS(=O)(=O)N1CC[C@@H](CN2C(=O)C3(CCOCC3)N=C2c2ccc(-c3ccc4occc4c3)cc2)C1` [compound 913, (S)-2-(4-(benzofuran-5-yl)phenyl)-3-((1-(methylsulfonyl)pyrrolidin-3-yl)methyl)-8-oxa-1,3-diazaspiro[4.5]dec-1-en-4-one], for which the inhibition at 10 µM is 0.4% and the IC50 was over 10 µM.

As to `CS(=O)(=O)N1CC[C@@H](CN2C(=O)C3(CCOC3)N=C2c2ccc(-c3ccc4occc4c3)cc2)C1` (stereo partly drawn) [compound 914, 2-(4-(benzofuran-5-yl)phenyl)-3-(((S)-1-(methylsulfonyl)pyrrolidin-3-yl)methyl)-7-oxa-1,3-diazaspiro[4.4]non-1-en-4-one], the inhibition at 10 µM is 1% and the IC50 was over 10 µM.

Consider `COC(=O)N1CC[C@@H](CN2C(=O)C3(CCOC3)N=C2c2ccc(-c3ccc4c(cnn4C)c3)cc2)C1` (stereo partly drawn) [compound 915, (3S)-methyl 3-((2-(4-(1-methyl-1H-indazol-5-yl)phenyl)-4-oxo-7-oxa-1,3-diazaspiro[4.4]non-1-en-3-yl)methyl)pyrrolidin-1-carboxylate], for which the inhibition at 10 µM came out at 11% and the IC50 was over 10 µM.

As for `COC(=O)N1CC[C@@H](CN2C(=O)C3(CN(C(=O)OC)C3)N=C2c2ccc(-c3ccc4c(cnn4C)c3)cc2)C1` [compound 916, (S)-methyl 7-((1-(methoxycarbonyl)pyrrolidin-3-yl)methyl)-6-(4-(1-methyl-1H-indazol-5-yl)phenyl)-8-oxo-5,7-triazaspiro[3.4]oct-5-ene-2-carboxylate], the inhibition at 10 µM was found to be 20% and the IC50 is over 10 µM.

Consider `COC(=O)N1CC2(C1)N=C(c1ccc(-c3ccc4c(cnn4C)c3)cc1)N(C[C@@H]1CCN(S(C)(=O)=O)C1)C2=O` [compound 917, (S)-methyl 6-(4-(1-methyl-1H-indazol-5-yl)phenyl)-7-((1-(methylsulfonyl)pyrrolidin-3-yl)methyl)-8-oxo-2,5,7-triazaspiro[3.4]oct-5-ene-2-carboxylate], for which the inhibition at 10 µM worked out at 2% and the IC50 is over 10 µM.

Take `COC(=O)N1CC2(C1)N=C(c1ccc(-c3ccc(-c4cnn(C)c4)cc3)cc1)N(C[C@@H]1CCN(C(=O)C(F)(F)F)C1)C2=O` [compound 919, (R)-methyl 6-(4′-(1-methyl-1H-pyrazol-4-yl)-[1,1′-biphenyl]-4-yl)-8-oxo-7-((1-(2,2,2-trifluoroacetyl)pyrrolidin-3-yl)methyl)-2,5,7-triazaspiro[3.4]oct-5-ene-2-carboxylate]: the inhibition at 10 µM worked out at 12% and the IC50 is over 10 µM.

With `O=C(c1nccs1)N1CC[C@@H](CN2C(=O)C3(CCOC3)N=C2c2ccc(-c3ccc4cccnc4c3)cc2)C1` (stereo partly drawn) [compound 920, 2-(4-(quinolin-7-yl)phenyl)-3-(((R)-1-(thiazole-2-carbonyl)pyrrolidin-3-yl)methyl)-7-oxa-1,3-diazaspiro[4.4]non-1-en-4-one], the inhibition at 10 µM is 35% and the IC50 is over 10 µM.

Turning to `Cn1cc(-c2ccc(-c3ccc(C4=NC5(CCOCC5)C(=O)N4CC4CN(S(C)(=O)=O)C4)cc3)cc2)cn1` [compound 921, 2-(4′-(1-methyl-1H-pyrazol-4-yl)-[1,1′-biphenyl]-4-yl)-3-((1-(methylsulfonyl)azetidin-3-yl)methyl)-8-oxa-1,3-diazaspiro[4.5]dec-1-en-4-one], the inhibition at 10 µM was -7% and the IC50 was over 10 µM.

`COC(=O)N1CC2(C1)N=C(c1ccc(-c3ccc(-c4cnn(C)c4)cc3)cc1)N(C[C@@H]1CCN(C(=O)N3CCCC3)C1)C2=O` [compound 924, (S)-methyl 6-(4′-(1-methyl-1H-pyrazol-4-yl)-[1,1′-biphenyl]-4-yl)-8-oxo-7-((1-(pyrrolidine-1-carbonyl)pyrrolidin-3-yl)metrhyl)-2,5,7-triazaspiro[3.4]oct-5-ene-2-carboxylate]: the inhibition at 10 µM turned out to be 41% and the IC50 is over 10 µM.

Regarding `O=C(C1CC1)N1CCC[C@@H](CN2C(=O)C3(CC3)N=C2c2ccc(-c3ccc(O)cc3)cc2)C1` [compound 925, (R)-6-((1-(cyclopropanecarbonyl)piperidin-3-yl)methyl)-5-(4′-hydroxy-[1,1′-biphenyl]-4-yl)-4,6-diazaspiro[2.4]hept-4-en-7-one], the inhibition at 10 µM is 5% and the IC50 was over 10 µM.

For the molecule `Cn1ncc2cc(-c3ccc(C4=NC5(CCOCC5)C(=O)N4C[C@@H]4CCN(S(C)(=O)=O)C4)cc3)ccc21` [compound 926, (S)-2-(4-(1-methyl-1H-indazol-5-yl)phenyl)-3-((1-(methylsulfonyl)pyrrolidin-3-yl)methyl)-8-oxa-1,3-diazaspiro[4.5]dec-1-en-4-one], the inhibition at 10 µM was -8% and the IC50 was over 10 µM.

Take `COC(=O)N1CC(CN2C(=O)C3(CCOC3)N=C2c2ccc(-c3ccc(-c4cnn(C)c4)cc3)cc2)C1` (stereo not drawn) [compound 927, methyl 3-((2-(4′-(1-methyl-1H-pyrazol-4-yl)-[1,1′-biphenyl]-4-yl)-4-oxo-7-oxa-1,3-diazaspiro[4.4]non-1-en-3-yl)methyl)azetidine-1-carboxylate]: the inhibition at 10 µM was -2% and the IC50 is over 10 µM.

For the molecule `COC(=O)N1CC(CN2C(=O)C3(CCOCC3)N=C2c2ccc(-c3ccc4occc4c3)cc2)C1` [compound 928], the inhibition at 10 µM was determined as 10% and the IC50 was over 10 µM.

For `COC(=O)N1CC2(C1)N=C(c1ccc(-c3ccc(-c4cnn(C)c4)cc3)cc1)N(C[C@@H]1CCN(C(=O)c3nccs3)C1)C2=O` [compound 929, (R)-methyl 6-(4′-(1-methyl-1H-pyrazol-4-yl)-[1,1′-biphenyl]-4-yl)-8-oxo-7-((1-(thiazole-2-carbonyl)pyrrolidin-3-yl)methyl)-2,5,7-triazaspiro[3.4]oct-5-ene-2-carboxylate], the inhibition at 10 µM was 6% and the IC50 is over 10 µM.

For `O=C(c1nccs1)N1CC(CN2C(=O)C3(CCOC3)N=C2c2ccc(-c3ccc4cccnc4c3)cc2)C1` (stereo not drawn) [compound 930, 2-(4-(quinolin-7-yl)phenyl)-3-((1-(thiazole-2-carbonyl)azetidin-3-yl)methyl)-7-oxa-1,3-diazaspiro[4.4]non-1-en-4-one], the inhibition at 10 µM was -14% and the IC50 is over 10 µM.

On to `COC(=O)N1CC[C@@H](CN2C(=O)C3(CN(C(=O)OC)C3)N=C2c2ccc(-c3ccc4occc4c3)cc2)C1` [compound 931, (S)-methyl 6-(4-(benzofuran-5-yl)phenyl)-7-((1-(methoxycarbonyl)pyrrolidin-3-yl)methyl)-8-oxo-2,5,7-triazaspiro[3.4]oct-5-ene-2-carboxylate], for which the inhibition at 10 µM is 31% and the IC50 was over 10 µM.

Consider `O=C(c1nccs1)N1CC(CN2C(=O)C3(CCOC3)N=C2c2ccc(-c3ccc4occc4c3)cc2)C1` (stereo not drawn) [compound 932, 2-(4-(benzofuran-5-yl)phenyl)-3-((1-(thiazole-2-carbonyl)azetidin-3-yl)methyl)-7-oxa-1,3-diazaspiro[4.4]non-1-en-4-one], for which the inhibition at 10 µM was found to be 2% and the IC50 is over 10 µM.

Take `Cn1ncc2cc(-c3ccc(C4=NC5(CCOC5)C(=O)N4C[C@@H]4CCN(S(C)(=O)=O)C4)cc3)ccc21` (stereo partly drawn) [compound 933, 2-(4-(1-methyl-1H-indazol-5-yl)phenyl)-3-(((S)-1-(methylsulfonyl)pyrrolidin-3-yl)methyl)-7-oxa-1,3-diazaspiro[4.4]non-1-en-4-one]: the inhibition at 10 µM was found to be 5% and the IC50 is over 10 µM.

For the molecule `O=C(c1nccs1)N1CCC(CN2C(=O)C3(CCOC3)N=C2c2ccc(-c3ccc4occc4c3)cc2)C1` (stereo not drawn) [compound 934, 2-(4-(benzofuran-5-yl)phenyl)-3-((1-(thiazole-2-carbonyl)pyrrolidin-3-yl)methyl)-7-oxa-1,3-diazaspiro[4.4]non-1-en-4-one], the inhibition at 10 µM came out at 27% and the IC50 was over 10 µM.

Consider `Cn1ncc2cc(-c3ccc(C4=NC5(CCOCC5)C(=O)N4CC4CN(C(=O)C(F)(F)F)C4)cc3)ccc21` [compound 935, 2-(4-(1-methyl-1H-indazol-5-yl)phenyl)-3-((1-(2,2,2-trifluoroacetyl)azetidin-3-yl)methyl)-8-oxa-1,3-diazaspiro[4.5]dec-1-en-4-one], for which the inhibition at 10 µM was -2% and the IC50 was over 10 µM.

For the molecule `COC(=O)N1CC(CN2C(=O)C3(CCOCC3)N=C2c2ccc(-c3ccc(-c4cnn(C)c4)cc3)cc2)C1` [compound 936, methyl 3-((2-(4′-(1-methyl-1H-pyrazol-4-yl)-[1,1′-biphenyl]-4-yl)-4-oxo-8-oxa-1,3-diazaspiro[4.5]dec-1-en-3-yl)methyl)azetidine-1-carboxylate], the inhibition at 10 µM was 7% and the IC50 was over 10 µM.
